Measured values from a melting point compilation (Tetko et al.; mined from patent text by program, amines drawn as free bases though some values may be those of a salt).

First: N#CC=C(C#N)Nc1ccccc1
Second: O=C(Nc1ccccc1)OC(C1CC1)C1CC1
The melting point of the first is higher: 123 to 126 °C for the first, 92 to 94 °C for the second.

Compared with `CC(C)(C)c1cc(SC2CC(=O)N(c3ccc(N4C(=O)CC(Sc5cc(C(C)(C)C)c(O)c(C(C)(C)C)c5)C4=O)cc3)C2=O)cc(C(C)(C)C)c1O` (stereo not given), `Cc1cn(-c2ccc(C(=N)N)cc2)c(=O)n1-c1ccc(CCC(=O)OC(C)C)cc1` is lower in melting point: 274 to 278 °C for the first, 246 to 249 °C for the second.

First: COC(=O)c1cc2c(cc1N)OCO2
Second: CC(=O)Nc1ccnn1-c1c(F)cc(C(F)(F)F)cc1Cl
The melting point of the first is lower: 107 to 108 °C for the first, 144 to 146 °C for the second.

Compared with `CCCC(=O)C(=O)NCC(OCC)(OCC)c1ccncc1`, `COc1ccc2c(c1)c(C)cn2CCCCCC(=O)O` is higher in melting point: 95 to 96 °C for the first, 134 to 137 °C for the second.

First: CCCOc1cccc(C2(c3cc(C(=O)CC)n(CC)c3)N=C(N)N(C)C2=O)c1 (stereo not given)
Second: CCC(=O)c1cnc2c(OCCO)cccc2c1Nc1ccc(F)cc1C
The melting point of the first is lower: 95 °C for the first, 170 to 172 °C for the second.

Compared with `COc1ccc(C(=O)Nc2ccccc2CC(C)C2CCCCN2C)cc1` (stereo not given), `CCCCc1ccc(OC)c(-c2csc(NC(=O)c3ccc(C(=O)N4CCC(N5CCC(OC(C)=O)C5)CC4)cc3)n2)c1` (stereo not given) is lower in melting point: 126 to 136 °C for the first, 99 °C for the second.

First: O=C1CCc2c1cccc2C(F)(F)F
Second: O=C(Nc1ccccc1F)c1c[nH]c2c1C(=O)CCC2
The melting point of the first is lower: 32 to 36 °C for the first, 238 to 240 °C for the second.

Compared with `OCc1ccc(-c2c3ccccc3nn2Cc2ccco2)cc1`, `CC(C)(C)n1cc(-c2ccc(Oc3ccccc3)cc2)c2c(N)ncnc21` is higher in melting point: 129 to 130 °C for the first, 157 to 158 °C for the second.

Compared with `Nc1ccc2ccc(-c3cccc(Br)c3)nc2n1`, `Nc1nc(N)c2cc(Cc3ccc(F)cc3)ccc2n1` is higher in melting point: 165 to 166 °C for the first, 214 to 216 °C for the second.

Compared with `CCOC(=O)c1nn(-c2ccc(N=[N+]=[N-])cc2)c(=O)c2c(N)scc12`, `CCOC(=O)c1c(O)c2cc(Cl)cnc2n(Cc2ccc(OC)cc2)c1=O` is higher in melting point: 169 to 170 °C for the first, 185 to 187 °C for the second.

First: COC(=O)Nc1cn2cccc(Sc3ccccc3)c2n1
Second: CC(C)NC(=C1Sc2ccccc2C1=O)c1ccccc1
The melting point of the first is higher: 169 to 171 °C for the first, 112 to 113 °C for the second.

First: O=C(Nc1ccc(Oc2cccc(Cl)c2)c(Cl)c1)c1ccccn1
Second: Clc1ccc(Nc2nnc(-c3ccc(-c4ccccc4)cc3)s2)cc1Cl
The melting point of the first is lower: 91.5 to 93.5 °C for the first, 306 °C for the second.

First: CCc1c(O)c(C(C)=O)cc2c1OC(C)(C)CC2C (stereo not given)
Second: CCC1(C)CC(NC(=O)c2cccc([N+](=O)[O-])c2O)CC(C)(C)C1 (stereo not given)
The melting point of the first is lower: 104 to 106 °C for the first, 125 to 128 °C for the second.

First: COCCc1cc(N2CCNCC2)n2nc(SC)c(S(=O)(=O)c3ccccc3)c2n1
Second: CN1C(=O)c2cc(Cl)ccc2N(C(=O)CCN2CCCC2)c2ccccc21
The melting point of the first is higher: 170 to 171 °C for the first, 118 to 120 °C for the second.

First: CN1C(C)(C(=O)OC(C)(C)C)COS1(=O)=O (stereo not given)
Second: C[C@@H]1CN(C(=O)OC(C)(C)C)C[C@H]2Cc3cc(Br)c(CO)nc3N21
The melting point of the first is lower: 54 to 55 °C for the first, 110 to 112 °C for the second.

First: C[C@@H]1N=C(c2ccccc2Cl)c2cc(N)ccc2N(C)C1=O
Second: Nc1ccc(C(=O)N2Cc3ccnn3Cc3ccccc32)c(Cl)c1
The melting point of the first is higher: 221 °C for the first, 98 to 117 °C for the second.

Compared with `O=[N+]([O-])c1ccc(N2CCC2)nc1`, `O=CNC1Cc2ccc([N+](=O)[O-])cc2C1` (stereo not given) is lower in melting point: 132 to 134 °C for the first, 91 to 92 °C for the second.

`O=c1ccc2c(-c3ccco3)nccc2[nH]1` and `O=C1NN=C(c2ccc3[nH]c(-c4ccncc4)cc3c2)CO1` cannot be ordered by melting point: over 300 °C for the first, 322 to 325 °C for the second.

First: CCOC(=O)c1c(C(F)(F)F)nc(-c2ccccc2)c(-c2ccccc2)c1O
Second: O=C(NNS(=O)(=O)c1ccccc1)c1nccc2ccccc12
The melting point of the first is lower: 130 °C for the first, 198 to 200 °C for the second.

First: CC(C(=O)NCCN(C)C)n1c(-c2ccc(Cl)cc2)nc2cccnc21 (stereo not given)
Second: CC(=O)Nc1c(F)ccc2nc(C)ccc12
The melting point of the first is lower: 130 to 133 °C for the first, 232 to 235 °C for the second.

First: COc1cc2oc(=O)c3c(c2cc1OC)CCN(CCN1CC2CCC1CC2)C3
Second: CC1(C)CCc2c(N3CCOCC3)nc3sc4c(NCCCN5CCCC5=O)ncnc4c3c2C1
The melting point of the first is lower: 133 to 135 °C for the first, 210 °C for the second.

First: Fc1cccc(F)c1-c1nc(COc2ccc(Oc3ccc(C(F)(F)F)cc3)cc2)no1
Second: Cc1cc(-c2cnn3c(C(F)F)cc(-c4ccc(C(F)(F)F)cc4)nc23)ccn1
The melting point of the first is lower: 83 to 84 °C for the first, 213 °C for the second.

Compared with `COc1ccc(-c2nc(CC(N)=O)sc2-c2ccc(OC)cc2)cc1`, `COCC(=O)c1cnc2c(OC)cccc2c1Nc1ccccc1C` is lower in melting point: 124 to 127 °C for the first, 122 to 123 °C for the second.

First: COc1cc(NC(=O)c2cccc(CCl)c2)cc(OC)c1OC
Second: COc1cc(/C=C/c2ccc(N)cc2)cc(OC)c1OC
The melting point of the first is lower: 138 to 145 °C for the first, 251 to 253 °C for the second.

First: Clc1ccc(Oc2ccccc2Oc2ncc(Br)cn2)nc1
Second: COc1cc(CC2(Cc3ccnc(OC)c3)c3ccccc3-c3ncccc32)ccn1
The melting point of the first is lower: 93 to 95 °C for the first, 138 to 140 °C for the second.

Compared with `CN1CCN(C2CC3C4CCC5CC6OC6CC5(C)C4CCC3(C)C2O)CC1` (stereo not given), `CCC12CCC3C4=C(CC(OC)=CC4)C(C)CC3C1CCC2O` (stereo not given) is higher in melting point: 149 to 153 °C for the first, 176 to 182 °C for the second.

First: N#CSc1ccc(NC(=O)OCc2cccnc2)cc1
Second: CC(C)(C)C(NC(=O)CCCc1cccnc1)NC(=NC#N)Nc1cccc2ncccc12 (stereo not given)
The melting point of the first is higher: 188 to 191 °C for the first, 181 to 182 °C for the second.

First: CCON=C(C)c1ccc2c(c1)ncn2-c1cccc(C2=CCCN(C)C2)c1
Second: O=C(c1cc(C2=CCCCC2)ccn1)N(O)Cc1ccccc1
The melting point of the first is higher: 138 to 143 °C for the first, 118 to 122 °C for the second.

First: COC(=O)[C@@H](C)OCC#Cc1cc(Cl)ccc1NS(=O)(=O)c1ccc2ncsc2c1
Second: CCc1nsc(NC(=O)C(C)c2ccc3oc(-c4c(F)cccc4Cl)nc3c2)c1Cl (stereo not given)
The melting point of the first is lower: 136 °C for the first, 178 to 179 °C for the second.

First: Oc1ccc(-c2c(Cl)c3cc(O)ccc3n2Cc2ccc(OCCN3CCCCCC3)cc2)cc1
Second: Cn1nnnc1NCC(O)CCOc1cccc(CN2CCCCC2)c1 (stereo not given)
The melting point of the first is higher: 196 to 198 °C for the first, 138 to 139 °C for the second.

Compared with `CCc1c(CC(=O)NCCCCCCNC(=O)Cc2ccc([N+](=O)[O-])cc2)ccc(OC)c1OC`, `O=C(O)c1ccc(CCNc2c(C(=O)O)cc(Cl)cc2[N+](=O)[O-])cc1` is higher in melting point: 146 to 148 °C for the first, 255 to 257 °C for the second.

First: O=C(O)CCCNC(=O)CCCNC(=O)c1cc(Br)no1
Second: CCOC(=O)CCc1cccc(C(=O)c2cccc(C(=O)OCC)c2)c1C=CCCCCO
The melting point of the first is higher: 157 to 158 °C for the first, 48 to 50 °C for the second.

First: Nc1nc2ccccc2n[n+]1[O-]
Second: NC(=S)Nc1cc(F)ccc1-c1ccccc1
The melting point of the first is higher: 266 to 268 °C for the first, 185 to 187 °C for the second.

First: COc1ccc(C(=O)N2c3ccccc3C(n3c4ccccc4c4ccccc43)CC2CCCCCN2CCN(c3ccc(F)cc3)CC2)cc1OC (stereo not given)
Second: O=C(NCCN1CCCC1)N1CCN(c2ccc(F)cc2)CC1
The melting point of the first is higher: 178 to 179 °C for the first, 100 to 102 °C for the second.

Compared with `NC(=O)Cc1ccc2c(c1)C(=O)Cc1cccnc1S2`, `CCOC(=O)C1(CC(=O)O)C(=O)N(Cc2ccc(Br)cc2F)C(=O)c2cccn21` (stereo not given) is lower in melting point: 215 to 216 °C for the first, 142 to 144 °C for the second.

Compared with `COc1cc(NC(=O)CN2CCOCC2)c(Cl)cc1Cn1nc(-c2ccc(C(F)(F)F)cc2)oc1=O`, `CC1CN(c2ncc(C(=O)N(c3cccc(C(F)(F)F)c3)C3CCCC3)c(N)n2)C(=O)N1` (stereo not given) is higher in melting point: 178 to 179 °C for the first, 219 to 220 °C for the second.

First: O=c1[nH]c2ccc(C=CCN3CCC(Cc4ccc(F)cc4)CC3)cc2o1
Second: c1ccc2c(c1)CC(CN1CCN(c3ccc4ccoc4c3)CC1)C2
The melting point of the first is higher: 202 to 204 °C for the first, 168 to 170 °C for the second.

Compared with `C=CCOc1ccc2c(ccc(=O)n2CC=C(C)C)c1`, `CN(C)c1ccc2cc(C(/C=C\NCCO)=C(C#N)C#N)ccc2c1` is higher in melting point: 80 to 82 °C for the first, 168 to 170 °C for the second.

First: N#Cc1ccc(OCCCN2CCN(C(CC(=O)O)c3cccnc3)C(=O)C2=O)cc1 (single isomer, unassigned; (-))
Second: N#CCCNC(=O)c1n[nH]cc1NC(=O)c1cccc(C#N)c1
The melting point of the first is lower: 199 to 200 °C for the first, 248 to 249 °C for the second.

Compared with `Nc1c(C(=O)c2cccc(Cl)c2)cc(Br)cc1[N+](=O)[O-]`, `CN(C)c1c(C(=O)c2ccccc2)[nH]c2cc(Cl)ccc12` is higher in melting point: 134 °C for the first, 178 to 180 °C for the second.

First: COc1cccc(CS(=O)c2nc3cnccc3[nH]2)c1 (stereo not given)
Second: COc1cc(OCc2cccnc2)ccc1/C=C/c1cc(/C=C/c2cccc3[nH]ccc23)n[nH]1
The melting point of the first is higher: 176 to 179 °C for the first, 109 to 114 °C for the second.

Compared with `O=C(OCc1ccc(CO)cc1COC(=O)c1ccccc1)c1ccccc1`, `Cc1cc(C#N)cc(C(=O)c2nc(OCc3ccccc3)nc(OCc3ccccc3)c2C(C)C)c1` is higher in melting point: 91 to 93 °C for the first, 129 to 130 °C for the second.

Compared with `CC(C)/[N+]([O-])=C/c1ccc(O)cc1O`, `CC(C)(C)OC(=O)NC(COc1noc2ccc(Cl)cc12)Cc1cc(O)no1` (stereo not given) is higher in melting point: 155 to 157 °C for the first, 159 to 161 °C for the second.

Compared with `CCOC(=O)c1c(C)cc2nc(CO)n(-c3ccccc3C)c(=O)c2c1C`, `CCCCNc1c(C(=O)OCC)c(C)nc2sc(C)nc12` is lower in melting point: 130 to 132 °C for the first, 53 to 54 °C for the second.

First: CC(C)(C)OC(=O)N[C@@H](COCc1ccccc1)C(=O)N[C@H](CCC(=O)OCc1ccccc1)C(N)=O
Second: CNC(=O)NS(=O)(=O)c1cc(CCNC(=O)/C=C/c2cccs2)ccc1OC
The melting point of the first is lower: 65 to 66 °C for the first, 120 °C for the second.

Compared with `COc1ccc(-c2c(-c3cc(OC)c(OC)c(OC)c3)ncn2-c2cc(OC)c(OC)c(OC)c2)cc1O`, `N#Cc1cnc2sc(C#Cc3ccncc3)cc2c1Nc1ccc2[nH]ccc2c1` is higher in melting point: 154 to 156 °C for the first, over 250 °C for the second.

Compared with `CCCc1ccc(S(=O)(=O)NN2CCOCC2)cc1`, `O=C(O)C(CC1CCCC1)c1ccc(S(=O)(=O)C2CCCC2)cc1` (stereo not given) is higher in melting point: 150 to 152 °C for the first, 165 to 167 °C for the second.

Compared with `Cn1nnnc1SCCCC(=O)c1ccco1`, `CCCSc1cscc1S(=O)(=O)NC(C)(C)C` is higher in melting point: 41 to 42 °C for the first, 61 to 63 °C for the second.

First: O=C(c1ccc(NC(=O)C(O)(C(F)F)C(F)F)cc1)c1ccccn1
Second: OC(CCl)COc1ccc(-c2nc(C(F)(F)F)c[nH]2)cc1 (stereo not given)
The melting point of the first is lower: 158 to 161 °C for the first, 181 to 183 °C for the second.

First: CN1CCSC1=NC(=O)CCC(=O)N=C1SCCN1C
Second: O=c1[nH]c2cc(-n3cccc3)c([N+](=O)[O-])cc2n(C2CCCCC2)c1=O
The melting point of the first is lower: 181 to 183 °C for the first, 197 °C for the second.
